Measured values reported in patent publication US20220241207A1, “EXTENDED-RELEASE SOLID ORAL DOSAGE FORM COMPRISING VITAMIN B12 AND A VITAMIN B12 DEPLETING DRUG” (DSM IP ASSETS B.V., priority 2019, published 2022).

Description: The solubilization medium was: • SIF (simulated intestinal fluid, pH=6.8, prepared according to Ph. Eur.)
The dissolution medium was heated to 37° C. and the analyses were performed at this temperature. During the analyses, the salts were added in access to the solubilization media and left to mix for 24 h. Afterwards, the solutions were filtered, and the precipitates were investigated using ATR-IR analysis to confirm the presence of the starting material (e.g. respective Ca salt). Attenuated total reflection (ATR) is a sampling technique used in conjunction with infrared spectroscopy which enables samples to be examined directly in the solid or liquid state without further preparation. The filtered solutions were analysed for Ca^2+ ions content.

dicalciumphosphat anhydrous [dicalcium phosphate anhydrous]
Ca^2+ ions average: 0.028 mg/mL
solubility average (pH 6.8): 0.09 mg/mL
